Converted amounts (≈) assume the structure as drawn.
Tests used:
Pseudomonas aeruginosa [1] = assay: Antimicrobial activity against Pseudomonas aeruginosa 1771M isolate after 18 hrs; type: functional
Escherichia coli [2] = assay: Antimicrobial activity against Escherichia coli TEM isolate after 18 hrs; type: functional
Streptococcus pyogenes [3] = assay: Antimicrobial activity against Streptococcus pyogenes 308A isolate after 18 hrs; type: functional
Staphylococcus aureus [4] = assay: Antimicrobial activity against Staphylococcus aureus 285 isolate after 18 hrs; type: functional
Staphylococcus aureus [5] = assay: Antimicrobial activity against Staphylococcus aureus 503 isolate after 18 hrs; type: functional
SK-MEL-2 = assay: Cytotoxicity against human SK-MEL-2 cells; type: functional; conditions: read-out: ED50 (the source's name)
Streptococcus pyogenes [6] = assay: Antimicrobial activity against Streptococcus pyogenes 77A isolate after 18 hrs; type: functional
Pseudomonas aeruginosa [7] = assay: Antimicrobial activity against Pseudomonas aeruginosa 1771 isolate after 18 hrs; type: functional
Escherichia coli [8] = assay: Antimicrobial activity against Escherichia coli 078 isolate after 18 hrs; type: functional
Pseudomonas aeruginosa [9] = assay: Antimicrobial activity against Pseudomonas aeruginosa 9027 isolate after 18 hrs; type: functional
Escherichia coli [10] = assay: Antimicrobial activity against Escherichia coli DC0 isolate after 18 hrs; type: functional
Enterobacter cloacae [11] = assay: Antimicrobial activity against Enterobacter cloacae P99 after 18 hrs; type: functional
XF498 = assay: Cytotoxicity against human XF498 cells; type: functional; conditions: read-out: ED50 (the source's name)
Klebsiella aerogenes = assay: Antimicrobial activity against Klebsiella aerogenes 1522E after 18 hrs; type: functional
Staphylococcus aureus [12] = assay: Antimicrobial activity against Staphylococcus aureus SG511 isolate after 18 hrs; type: functional
Enterobacter cloacae [13] = assay: Antimicrobial activity against Enterobacter cloacae 1321E after 18 hrs; type: functional
Escherichia coli [14] = assay: Antimicrobial activity against Escherichia coli 1507E isolate after 18 hrs; type: functional
Escherichia coli [15] = assay: Antimicrobial activity against Escherichia coli DC2 isolate after 18 hrs; type: functional
HCT-15 = assay: Cytotoxicity against human HCT15 cells; type: functional; conditions: read-out: ED50 (the source's name)
Pseudomonas aeruginosa [16] = assay: Antimicrobial activity against Pseudomonas aeruginosa 1592E isolate after 18 hrs; type: functional
SK-OV-3 = assay: Cytotoxicity against human SKOV3 cells; type: functional; conditions: read-out: ED50 (the source's name)
Enterococcus faecium = assay: Antimicrobial activity against Streptococcus faecium MD8b isolate after 18 hrs; type: functional
A549 = assay: Cytotoxicity against human A549 cells; type: functional; conditions: read-out: ED50 (the source's name)
Klebsiella oxytoca = assay: Antimicrobial activity against Klebsiella oxytoca 1082E after 18 hrs; type: functional
Salmonella typhimurium = assay: Antimicrobial activity against Salmonella Typhimurium after 18 hrs; type: functional, Salmonella enterica subsp. enterica serovar Typhimurium; conditions: Salmonella enterica

Row | Structure (SMILES) | MIC (Pseudomonas aeruginosa [1]) [µg/mL] | MIC (Escherichia coli [2]) [µg/mL] | MIC (Streptococcus pyogenes [3]) [µg/mL] | MIC (Staphylococcus aureus [4]) [µg/mL] | MIC (Staphylococcus aureus [5]) [µg/mL] | EC50 (SK-MEL-2) [µg/mL] | MIC (Streptococcus pyogenes [6]) [µg/mL] | MIC (Pseudomonas aeruginosa [7]) [µg/mL] | MIC (Escherichia coli [8]) [µg/mL] | MIC (Pseudomonas aeruginosa [9]) [µg/mL] | MIC (Escherichia coli [10]) [µg/mL] | MIC (Enterobacter cloacae [11]) [µg/mL] | EC50 (XF498) [µg/mL] | MIC (Klebsiella aerogenes) [µg/mL] | MIC (Staphylococcus aureus [12]) [µg/mL] | MIC (Enterobacter cloacae [13]) [µg/mL] | MIC (Escherichia coli [14]) [µg/mL] | MIC (Escherichia coli [15]) [µg/mL] | EC50 (HCT-15) [µg/mL] | MIC (Pseudomonas aeruginosa [16]) [µg/mL] | other results
1 | CC(C)[C@@H](O)/C=C/[C@@H](C)[C@H]1C[C@@H](O)[C@H]2[C@@H]3C[C@H](O)[C@H]4C[C@@H](O)CC[C@]4(C)[C@H]3CC[C@@]21C [CERTONARDOSTEROL G] | 25 (≈ 57.5 µM) | > 25 | 12.5 (≈ 28.8 µM) | > 25 | > 25 | 3.4 (≈ 7.82 µM) | > 25 | 12.5 (≈ 28.8 µM) | > 25 | > 25 | > 25 | > 25 | 3.7 (≈ 8.51 µM) | > 25 | > 25 | > 25 | > 25 | > 25 | 4 (≈ 9.2 µM) | > 25 | EC50 (SK-OV-3): 3.6 µg/mL (≈ 8.28 µM); MIC (Enterococcus faecium): > 25 µg/mL; EC50 (A549): 3.6 µg/mL (≈ 8.28 µM); MIC (Klebsiella oxytoca): > 25 µg/mL; MIC (Salmonella typhimurium): > 25 µg/mL
2 | CC(/C=C/[C@@H](C)[C@H]1C[C@@H](O)[C@H]2[C@@H]3C[C@H](O)[C@H]4C[C@@H](O)CC[C@]4(C)[C@H]3CC[C@@]21C)CO (stereo not given in full) [CERTONARDOSTEROL H] | 25 (≈ 59.4 µM) | > 25 | 25 (≈ 59.4 µM) | > 25 | > 25 | 6.4 (≈ 15.2 µM) | > 25 | 25 (≈ 59.4 µM) | > 25 | > 25 | > 25 | > 25 | 8.6 (≈ 20.4 µM) | > 25 | > 25 | > 25 | > 25 | > 25 | 10.6 (≈ 25.2 µM) | > 25 | EC50 (SK-OV-3): 9.4 µg/mL (≈ 22.3 µM); MIC (Enterococcus faecium): > 25 µg/mL; EC50 (A549): 7.1 µg/mL (≈ 16.9 µM); MIC (Klebsiella oxytoca): > 25 µg/mL; MIC (Salmonella typhimurium): > 25 µg/mL
3 | C/C(=C\[C@@H](C)[C@H]1C[C@@H](O)[C@@H]2[C@]1(C)CC[C@@H]1[C@@]3(C)CC[C@H](O)C[C@@H]3[C@@H](O)C[C@]12O)[C@H](C)[C@@H](C)CO [CERTONARDOSTEROL I] | 25 (≈ 52.2 µM) | > 25 | 25 (≈ 52.2 µM) | > 25 | > 25 | 5.3 (≈ 11.1 µM) | 25 (≈ 52.2 µM) | 12.5 (≈ 26.1 µM) | > 25 | > 25 | > 25 | > 25 | 7.3 (≈ 15.2 µM) | > 25 | > 25 | > 25 | > 25 | > 25 | 6.3 (≈ 13.2 µM) | > 25 | EC50 (SK-OV-3): 8.8 µg/mL (≈ 18.4 µM); MIC (Enterococcus faecium): > 25 µg/mL; EC50 (A549): 5.1 µg/mL (≈ 10.7 µM); MIC (Klebsiella oxytoca): > 25 µg/mL; MIC (Salmonella typhimurium): > 25 µg/mL
4 | C/C(=C\[C@@H](C)[C@H]1C[C@@H](O)[C@H]2[C@@H]3C[C@H](O)[C@H]4C[C@@H](O)CC[C@]4(C)[C@H]3CC[C@@]21C)[C@H](C)[C@@H](C)CO [CERTONARDOSTEROL J] | 25 (≈ 54 µM) | > 25 | 25 (≈ 54 µM) | > 25 | > 25 | 7.1 (≈ 15.3 µM) | 25 (≈ 54 µM) | 12.5 (≈ 27 µM) | > 25 | > 25 | > 25 | > 25 | 11.4 (≈ 24.6 µM) | > 25 | > 25 | > 25 | > 25 | > 25 | 12.5 (≈ 27 µM) | > 25 | EC50 (SK-OV-3): 10.3 µg/mL (≈ 22.3 µM); MIC (Enterococcus faecium): > 25 µg/mL; EC50 (A549): 8 µg/mL (≈ 17.3 µM); MIC (Klebsiella oxytoca): > 25 µg/mL; MIC (Salmonella typhimurium): > 25 µg/mL
